{
  "source": "patent US20080124285A1",
  "about": "“Merocyanine Derivatives for Cosmetic Use” (priority 2003, published 2008)",
  "data": [
    {"assay": "UV absorption maximum (λmax) in solvent", "type": "physicochemical", "conditions": "acetonitril; preparation example", "units": {"λmax": "nm"}, "values": [
      {"smiles": "CCOC(=O)/C(C#N)=C1\\C=C(NCCNC2=C/C(=C(/C#N)C(=O)OCC)CC(C)(C)C2)CC(C)(C)C1", "note": "[MC02]", "λmax": 389}
    ]},
    {"assay": "UV absorption maximum (λmax) in solvent", "type": "physicochemical", "conditions": "ethanol; preparation example", "units": {"λmax": "nm"}, "values": [
      {"smiles": "CCOC(=O)/C(C#N)=C1\\C=C(N2CCN(C3=C/C(=C(/C#N)C(=O)OCC)CC(C)(C)C3)CC2)CC(C)(C)C1", "note": "[MC07]", "λmax": 406},
      {"smiles": "CCOC(=O)C(C(=O)OCC)=C1C=C(NC2CCCCC2NC2=CC(=C(C(=O)OCC)C(=O)OCC)CC(C)(C)C2)CC(C)(C)C1", "note": "(centres unmarked) [MC10]", "λmax": 373}
    ]},
    {"assay": "UV absorption maximum (λmax) in solvent", "type": "physicochemical", "conditions": "in Acetonitril; Table MC1a (intermediates, UV-B absorbers)", "values": [
      {"smiles": "CC1(C)CC(=O)C=C(NC2CCCCC2NC2=CC(=O)CC(C)(C)C2)C1", "note": "(centres unmarked) [MC08a]", "λmax [nm]": "295(Acetonitril) nm"}
    ]},
    {"assay": "UV absorption maximum (λmax) in solvent", "type": "physicochemical", "conditions": "in Acetonitrile; Table MC1", "values": [
      {"smiles": "CC1(C)CC(NCC2(C)CC(NC3=CC(=C(C#N)C#N)CC(C)(C)C3)CC(C)(C)C2)=CC(=C(C#N)C#N)C1", "note": "(centres unmarked) [MC37]", "λmax [nm]": "383(Aceto-nitrile) nm"}
    ]},
    {"assay": "UV absorption maximum (λmax) in solvent", "type": "physicochemical", "conditions": "in EtOH; Table MC1", "values": [
      {"smiles": "CCCCC(CC)COC(=O)/C(C#N)=C1/C=C(NCCNC2=C/C(=C(\\C#N)C(=O)OCC(CC)CCCC)CC(C)(C)C2)CC(C)(C)C1", "note": "(centres unmarked) [MC01]", "λmax [nm]": "366,398(EtOH) nm"},
      {"smiles": "CCOC(=O)/C(C#N)=C1\\C=C(NCCNC2=C/C(=C(/C#N)C(=O)OCC)CC(C)(C)C2)CC(C)(C)C1", "note": "[MC02]", "λmax [nm]": "366,398(EtOH) nm"},
      {"smiles": "CCOC(=O)C(C(=O)OCC)=C1C=C(NCCNC2=CC(=C(C(=O)OCC)C(=O)OCC)CC(C)(C)C2)CC(C)(C)C1", "note": "[MC03]", "λmax [nm]": "383(EtOH) nm"},
      {"smiles": "CCOC(=O)/C(C#N)=C1\\C=C(N2CCN(C3=C/C(=C(/C#N)C(=O)OCC)CC(C)(C)C3)CC2)CC(C)(C)C1", "note": "[MC07]", "λmax [nm]": "406(EtOH) nm"},
      {"smiles": "CCOC(=O)C(C(=O)OCC)=C1C=C(N2CCN(C3=CC(=C(C(=O)OCC)C(=O)OCC)CC(C)(C)C3)CC2)CC(C)(C)C1", "note": "[MC08]", "λmax [nm]": "373(EtOH) nm"},
      {"smiles": "CCOC(=O)C(C(=O)OCC)=C1C=C(NC2CCCCC2NC2=CC(=C(C(=O)OCC)C(=O)OCC)CC(C)(C)C2)CC(C)(C)C1", "note": "(centres unmarked) [MC10]", "λmax [nm]": "384(EtOH) nm"},
      {"smiles": "CCOC(=O)/C(C#N)=C1\\C=C(NCCCCCCNC2=C/C(=C(/C#N)C(=O)OCC)CCC2)CCC1", "note": "[MC18]", "λmax [nm]": "388(EtOH) nm"},
      {"smiles": "CCOC(=O)C(C(=O)OCC)=C1C=C(NCCCCCCNC2=CC(=C(C(=O)OCC)C(=O)OCC)CCC2)CCC1", "note": "[MC19]", "λmax [nm]": "370(EtOH) nm"},
      {"smiles": "CCOC(=O)/C(C#N)=C1\\C=C(NC2CC(C)(C)CC(C)(CNC3=C/C(=C(\\C#N)C(=O)OCC)CC(C)(C)C3)C2)CC(C)(C)C1", "note": "(centres unmarked) [MC24]", "λmax [nm]": "391(EtOH) nm"},
      {"smiles": "CCOC(=O)C(C(=O)OCC)=C1C=C(NCC2(C)CC(NC3=CC(=C(C(=O)OCC)C(=O)OCC)CC(C)(C)C3)CC(C)(C)C2)CC(C)(C)C1", "note": "(centres unmarked) [MC25]", "λmax [nm]": "378(EtOH) nm"},
      {"smiles": "CC1(C)CC(NC2CCCCC2NC2=CC(=C(C#N)C#N)CC(C)(C)C2)=CC(=C(C#N)C#N)C1", "note": "(centres unmarked) [MC34]", "λmax [nm]": "357/388(EtOH)"},
      {"smiles": "COC(=O)C(C(=O)OC)=C1C=C(NC2CCCCC2NC2=CC(=C(C(=O)OC)C(=O)OC)CCC2)CCC1", "note": "(centres unmarked) [MC35]", "λmax [nm]": "389(EtOH) nm"},
      {"smiles": "CCCCC(CC)COC(=O)/C(C#N)=C1/C=C(NC2CCCCC2NC2=C/C(=C(\\C#N)C(=O)OCC(CC)CCCC)CCC2)CCC1", "note": "(centres unmarked) [MC36]", "λmax [nm]": "401(EtOH) nm"}
    ]},
    {"assay": "UV absorption maximum (λmax) in solvent", "type": "physicochemical", "conditions": "in EtOH; Table MC1a (intermediates, UV-B absorbers)", "values": [
      {"smiles": "CC1(C)CC(=O)C=C(NCCNC2=CC(=O)CC(C)(C)C2)C1", "note": "[MC01a]", "λmax [nm]": "296 (EtOH) nm"},
      {"smiles": "CC1(C)CC(=O)C=C(N2CCN(C3=CC(=O)CC(C)(C)C3)CC2)C1", "note": "[MC06a]", "λmax [nm]": "309 (EtOH) nm"}
    ]}
  ]
}
